Laboratory results taken from PMC8848307 (Journal of medicinal chemistry, 2019).
Where “and” joins values, the source holds several entries; their conditions need not be identical. Equal values may be shown once.

What was measured:
[1] = molecular target: T1, STAT3 protein (Homo sapiens, UniProt P40763); assay: Western blotting of STAT3 degradation in SU-DHL-1 cells; format: cell-based; conditions: for times less potent than SD-36 in STAT3 degradation: SU-DHL-1 cells, ratio of DC50; for reducing the levels of STAT3 and pSTAT3^Y705 proteins: SU-DHL-1, up to 5 μM
[2] = molecular target: T1, STAT3 protein; assay: Western blotting of STAT3 degradation in Molm-16 cells; format: cell-based; conditions: Molm-16 cells, ratio of DC50

T1 sequence (P40763 whole entry): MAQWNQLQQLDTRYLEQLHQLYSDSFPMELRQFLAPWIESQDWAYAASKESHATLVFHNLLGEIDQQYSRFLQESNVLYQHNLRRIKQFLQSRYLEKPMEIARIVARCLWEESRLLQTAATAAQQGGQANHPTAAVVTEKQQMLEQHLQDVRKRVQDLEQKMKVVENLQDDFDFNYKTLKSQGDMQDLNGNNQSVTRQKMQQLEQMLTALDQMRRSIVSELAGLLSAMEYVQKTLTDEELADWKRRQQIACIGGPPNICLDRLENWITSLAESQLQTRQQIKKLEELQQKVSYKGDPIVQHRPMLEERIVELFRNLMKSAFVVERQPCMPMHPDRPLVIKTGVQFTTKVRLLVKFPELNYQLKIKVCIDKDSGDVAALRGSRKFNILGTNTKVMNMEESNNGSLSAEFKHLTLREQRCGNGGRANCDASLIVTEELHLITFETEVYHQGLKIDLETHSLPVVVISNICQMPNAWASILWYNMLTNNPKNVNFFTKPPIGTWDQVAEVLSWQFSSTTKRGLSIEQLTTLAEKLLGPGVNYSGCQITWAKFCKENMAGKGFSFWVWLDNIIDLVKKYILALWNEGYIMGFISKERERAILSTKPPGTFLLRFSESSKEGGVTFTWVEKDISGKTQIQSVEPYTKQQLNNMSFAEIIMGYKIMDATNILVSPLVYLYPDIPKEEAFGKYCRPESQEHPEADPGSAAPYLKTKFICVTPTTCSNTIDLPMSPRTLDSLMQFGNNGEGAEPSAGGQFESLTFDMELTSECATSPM

| Compound | times less potent than SD-36 in STAT3 degradation [1] | times less potent than SD-36 in STAT3 degradation [2] | reducing the levels of STAT3 and pSTAT3^Y705 proteins [1] | effect on the levels of STAT3 and pSTAT3^Y705 ([1]; SU-DHL-1, concentrations up to 10 μM) |
| --- | --- | --- | --- | --- |
| NC(=O)CC[C@H](NC(=O)[C@@H]1CC[C@@H]2CCN(CCCCCCC#Cc3cccc4c3CN(C3CCC(=O)NC3=O)C4=O)C[C@H](NC(=O)c3cc4cc(C(F)(F)P(=O)(O)O)ccc4[nH]3)C(=O)N21)C(=O)NC(c1ccccc1)c1ccccc1 (stereo partly drawn) [Compound 17, ((2-(((5S,8S,10aR)-8-(((S)-5-Amino-1-(benzhydrylamino)-1,5-dioxopentan-2-yl)carbamoyl)-3-(8-(2-(2,6-dioxopiperidin-3-yl)-1-oxoisoindolin-4-yl)oct-7-yn-1-yl)-6-oxodecahydropyrrolo[1,2-a][1,5]diazocin-5-yl)carbamoyl)-1H-indol-5-yl)difluoromethyl)phosphonic Acid] | 30 times | > 10 times |  |  |
| NC(=O)CC[C@H](NC(=O)[C@@H]1CC[C@@H]2CCN(C(=O)CCCCCC#Cc3cccc4c3C(=O)N(C3CCC(=O)NC3=O)C4=O)C[C@H](NC(=O)c3cc4cc(C(F)(F)P(=O)(O)O)ccc4[nH]3)C(=O)N21)C(=O)NC(c1ccccc1)c1ccccc1 (stereo partly drawn) [Compound 27, ((2-(((5S,8S,10aR)-8-(((S)-5-Amino-1-(benzhydrylamino)-1,5-dioxopentan-2-yl)carbamoyl)-3-(8-(2-(2,6-dioxopiperidin-3-yl)-1,3-dioxoisoindolin-4-yl)oct-7-ynoyl)-6-oxodecahydropyrrolo[1,2-a][1,5]diazocin-5-yl)carbamoyl)-1H-indol-5-yl)difluoromethyl)phosphonic Acid] |  | > 50 times | ineffective |  |
| NC(=O)CC[C@H](NC(=O)[C@@H]1CC[C@@H]2CCN(C(=O)CCCCCC#Cc3cccc4c3CN(C3CCC(=O)NC3=O)C4=O)C[C@H](NC(=O)c3cc4cc(C(F)(F)P(=O)(O)O)ccc4[nH]3)C(=O)N21)C(=O)NCc1ccccc1 (stereo partly drawn) [Compound 30, ((2-(((5S,8S,10aR)-8-(((S)-5-Amino-1-(benzylamino)-1,5-dioxopentan-2-yl)carbamoyl)-3-(8-(2-(2,6-dioxopiperidin-3-yl)-1-oxoisoindolin-4-yl)oct-7-ynoyl)-6-oxodecahydropyrrolo-[1,2-a][1,5]diazocin-5-yl)carbamoyl) −1H-indol-5-yl)difluoromethyl)phosphonic Acid] | 2 times | 4 times |  |  |
| CNC(=O)[C@H](CCC(N)=O)NC(=O)[C@@H]1CC[C@@H]2CCN(C(=O)CCCCCC#Cc3cccc4c3CN(C3CCC(=O)NC3=O)C4=O)C[C@H](NC(=O)c3cc4cc(C(F)(F)P(=O)(O)O)ccc4[nH]3)C(=O)N21 (stereo partly drawn) [Compound 31, ((2-(((5S,8S,10aR)-8-(((S)-5-Amino-1-(methylamino)-1,5-dioxopentan-2-yl)carbamoyl)-3-(8-(2-(2,6-dioxopiperidin-3-yl)-1-oxoisoindolin-4-yl)oct-7-ynoyl)-6-oxodecahydropyrrolo-[1,2-a][1,5]diazocin-5-yl)carbamoyl)-1H-indol-5-yl)difluoromethyl)phosphonic Acid] | 30 times | 10 times and > 10 times |  |  |
| C/C(=C\C(=O)N[C@H]1CN(C(=O)CCCCCC#Cc2cccc3c2CN(C2CCC(=O)NC2=O)C3=O)CC[C@H]2CC[C@@H](C(=O)N[C@@H](CCC(N)=O)C(=O)NC(c3ccccc3)c3ccccc3)N2C1=O)c1ccc(C(F)(F)P(=O)(O)O)cc1 (stereo partly drawn) [Compound 34, ((4-((E)-4-(((5S,8S,10aR)-8-(((S)-5-Amino-1-(benzhydrylamino)-1,5-dioxopentan-2-yl)carbamoyl)-3-(8-(2-(2,6-dioxopiperidin-3-yl)-1-oxoisoindolin-4-yl)oct-7-ynoyl)-6-oxodecahydropyrrolo[1,2-a][1,5]diazocin-5-yl)amino)-4-oxobut-2-en-2-yl)phenyl)difluoromethyl)phosphonic Acid] |  | > 70 times | ineffective | fails to degrade |
